Patent publication US6509379B1, “Phenylacetic acid derivatives, process and intermediate products for their preparation, and their use as fungicides and pesticides” (BASF Aktiengesellschaft, priority 1995, dated 2003)

What was measured:
[1] = system: leaf rust of wheat (Puccinia recondite); assay: Efficacy against leaf rust of wheat (spray after infection of potted wheat seedlings); assay type: in vivo; details: wheat seedlings cv. Kanzler, sprayed 24 hours after dusting with spores, evaluated after 8 days, untreated 70
Procedure: (§1) The active ingredients are formulated as a 20% strength emulsion in a mixture of 70% by weight of cyclohexanone, 20% by weight of Nekanil® LN (Lutensol® AP6, wetting agent having emulsifier and dispersing action based on ethoxylated alkylphenols) and 10% by weight of Emulphor® EL (Emulan® EL, emulsifier based on ethoxylated fatty alcohols) and diluted with water to give the desired concentration. The experiments were evaluated visually.
Leaves of wheat seedlings cv. “Kanzler” in pots were dusted with leaf rust spores (Puccinia recondite). The pots were then placed for 24 hours in a chamber with high atmospheric humidity (90 to 95%) at from 20 to 22° C. During this time, the spores germinated, and the germ tubes penetrated the leaf tissue. The infected plants were subsequently sprayed to runoff point with aqueous spray mixtures comprising 80% of active ingredient of Table 1 and 20% of emulsifier in the dry matter. After the spray coating had dried on, the test plants were placed in a greenhouse at from 20 to 22° C. and a relative atmospheric humidity of 65 to 70%. After 8 days, the extent of rust development on the leaves was determined.

[2] = system: powdery mildew of wheat (Erysiphe graminis var. tritici); assay: Efficacy against powdery mildew of wheat (protective spray on potted wheat seedlings); assay type: in vivo; details: wheat seedlings cv. Frühgold, sprayed 24 hours before dusting with oidia, evaluated after 7 days, untreated 70
Procedure: as §1
Leaves of wheat seedlings cv. “Frühgold” in pots were sprayed with aqueous spray mixture comprising 80% of active ingredient of Table 1 and 20% of emulsifier in the dry matter and, 24 hours after the spray coating had dried on, dusted with oidia (spores) of powdery mildew of wheat (Erysiphe graminis var. tritici). The test plants were subsequently placed in a greenhouse at from 20 to 22° C. and a relative atmospheric humidity of 75 to 80%. After 7 days, the extent of mildew development was determined.

CC=C(C(=O)OC)c1ccccc1CON=C(C)C(=NOC)c1ccc(C=NOC)cc1 [I.58]
% infection of the leaves after application of an aqueous preparation comprising . . . ppm of active ingredient ([1]; 63 ppm): 0% | % infection of the leaves after application of an aqueous preparation comprising 250 ppm of active ingredient [2]: 0%

CNC(=O)C(=NOC)c1ccccc1CON=C(C)C(=NOC)c1ccc(C=NOC)cc1 [I.54]
% infection of the leaves after application of an aqueous preparation comprising . . . ppm of active ingredient ([1]; 16 ppm): 0% | % infection of the leaves after application of an aqueous preparation comprising 250 ppm of active ingredient [2]: 5%

CC=C(C(=O)OC)c1ccccc1CON=C(C)C(=NOC)c1ccc(N(C)C(=O)C(C)(C)C)cc1 [I.44]
% infection of the leaves after application of an aqueous preparation comprising . . . ppm of active ingredient ([1]; 63 ppm): 5%

CCC(=O)N(CC)c1ccc(C(=NOC)C(C)=NOCc2ccccc2C(=COC)C(=O)OC)cc1 [I.18]
% infection of the leaves after application of an aqueous preparation comprising 250 ppm of active ingredient [2]: 5%

CC=C(C(=O)OC)c1ccccc1CON=C(C)C(=NOC)c1ccc(NC(=O)C(C)(C)C)cc1 [I.43]
% infection of the leaves after application of an aqueous preparation comprising . . . ppm of active ingredient ([1]; 63 ppm): 5% | % infection of the leaves after application of an aqueous preparation comprising 250 ppm of active ingredient [2]: 15%

COC=C(C(=O)OC)c1ccccc1CON=C(C)C(=NOC)c1ccc(NC(=O)C(C)(C)C)cc1 [I.13]
% infection of the leaves after application of an aqueous preparation comprising . . . ppm of active ingredient ([1]; 16 ppm): 5% | % infection of the leaves after application of an aqueous preparation comprising . . . ppm of active ingredient ([1]; 63 ppm): 15% | % infection of the leaves after application of an aqueous preparation comprising 250 ppm of active ingredient [2]: 0%

COC=C(C(=O)OC)c1ccccc1CON=C(C)C(=NOC)c1ccc(C=NOC)cc1 [I.59]
% infection of the leaves after application of an aqueous preparation comprising . . . ppm of active ingredient ([1]; 63 ppm): 10% | % infection of the leaves after application of an aqueous preparation comprising 250 ppm of active ingredient [2]: 0%

CCN(C(C)=O)c1ccc(C(=NOC)C(C)=NOCc2ccccc2C(=NOC)C(=O)NC)cc1 [I.30]
% infection of the leaves after application of an aqueous preparation comprising . . . ppm of active ingredient ([1]; 16 ppm): 15%

CC=C(C(=O)OC)c1ccccc1CON=C(C)C(=NOC)c1ccc(N(CC)C(C)=O)cc1 [I.41]
% infection of the leaves after application of an aqueous preparation comprising . . . ppm of active ingredient ([1]; 63 ppm): 15% | % infection of the leaves after application of an aqueous preparation comprising 250 ppm of active ingredient [2]: 15%

CCC(=O)N(C)c1ccc(C(=NOC)C(C)=NOCc2ccccc2C(=NOC)C(=O)NC)cc1 [I.5]
% infection of the leaves after application of an aqueous preparation comprising . . . ppm of active ingredient ([1]; 63 ppm): 0% | % infection of the leaves after application of an aqueous preparation comprising 250 ppm of active ingredient [2]: 5%

CC=C(C(=O)OC)c1ccccc1CON=C(C)C(=NOC)c1ccc(NC(=O)CC)cc1 [I.20]
% infection of the leaves after application of an aqueous preparation comprising 250 ppm of active ingredient [2]: 15%

CCC(=O)N(CC)c1ccc(C(=NOC)C(C)=NOCc2ccccc2C(=NOC)C(=O)NC)cc1 [I.8]
% infection of the leaves after application of an aqueous preparation comprising . . . ppm of active ingredient ([1]; 63 ppm): 0% | % infection of the leaves after application of an aqueous preparation comprising 250 ppm of active ingredient [2]: 0%

CCN(C(=O)C(C)(C)C)c1ccc(C(=NOC)C(C)=NOCc2ccccc2C(=NOC)C(=O)NC)cc1 [I.26]
% infection of the leaves after application of an aqueous preparation comprising 250 ppm of active ingredient [2]: 15%

CC=C(C(=O)OC)c1ccccc1CON=C(C)C(=NOC)c1ccc(N(CC)C(=O)CC)cc1 [I.22]
% infection of the leaves after application of an aqueous preparation comprising 250 ppm of active ingredient [2]: 15%

CCC(=O)N(C)c1ccc(C(=NOC)C(C)=NOCc2ccccc2C(=COC)C(=O)OC)cc1 [I.17]
% infection of the leaves after application of an aqueous preparation comprising 250 ppm of active ingredient [2]: 15%

CC=C(C(=O)OC)c1ccccc1CON=C(C)C(=NOC)c1ccc(N(CCC)C(=O)CC)cc1 [I.23]
% infection of the leaves after application of an aqueous preparation comprising 250 ppm of active ingredient [2]: 15%

CC=C(C(=O)OC)c1ccccc1CON=C(C)C(=NOC)c1ccc(N(CC)C(=O)C(C)(C)C)cc1 [I.45]
% infection of the leaves after application of an aqueous preparation comprising . . . ppm of active ingredient ([1]; 63 ppm): 15% | % infection of the leaves after application of an aqueous preparation comprising 250 ppm of active ingredient [2]: 15%

CON=Cc1ccc(C(=NOC)C(C)=NOCc2ccccc2C(=NOC)C(=O)OC)cc1 [I.53]
% infection of the leaves after application of an aqueous preparation comprising 250 ppm of active ingredient [2]: 15%

CNC(=O)C(=NOC)c1ccccc1CON=C(C)C(=NOC)c1ccc(N(OC)C(=O)OC)cc1 [I.25]
% infection of the leaves after application of an aqueous preparation comprising 250 ppm of active ingredient [2]: 5%

CNC(=O)/C(=N/OC)c1ccccc1CO/N=C(C)/C(=N/OC)c1ccc(/C(C)=N/OC)cc1 [I.52]
% infection of the leaves after application of an aqueous preparation comprising . . . ppm of active ingredient ([1]; 16 ppm): 0% | % infection of the leaves after application of an aqueous preparation comprising 250 ppm of active ingredient [2]: 15%

CCCN(C(C)=O)c1ccc(C(=NOC)C(C)=NOCc2ccccc2C(=NOC)C(=O)NC)cc1 [I.31]
% infection of the leaves after application of an aqueous preparation comprising . . . ppm of active ingredient ([1]; 16 ppm): 0% | % infection of the leaves after application of an aqueous preparation comprising 250 ppm of active ingredient [2]: 15%

CNC(=O)/C(=N/OC)c1ccccc1CO/N=C(C)/C(=N/OC)c1ccc(N(C)C(=O)C(C)(C)C)cc1 [I.10]
melting point: 168 to 170 °C

CC=C(C(=O)OC)c1ccccc1CON=C(C)C(=NOC)c1ccc(N(C)C(=O)CC)cc1 [I.21]
% infection of the leaves after application of an aqueous preparation comprising 250 ppm of active ingredient [2]: 5%

CCCN(C(=O)CC)c1ccc(C(=NOC)C(C)=NOCc2ccccc2C(=COC)C(=O)OC)cc1 [I.19]
% infection of the leaves after application of an aqueous preparation comprising 250 ppm of active ingredient [2]: 5%

CCCCN(C(=O)C(C)(C)C)c1ccc(C(=NOC)C(C)=NOCc2ccccc2C(=NOC)C(=O)NC)cc1 [I.27]
% infection of the leaves after application of an aqueous preparation comprising . . . ppm of active ingredient ([1]; 16 ppm): 3% | % infection of the leaves after application of an aqueous preparation comprising 250 ppm of active ingredient [2]: 5%

CO/N=C(/C(C)=N/OCc1ccccc1/C(=N\OC)C(=O)OC)c1ccc(N(C)C(=O)C(C)(C)C)cc1 [I.12]
melting point: 111 to 113 °C | % infection of the leaves after application of an aqueous preparation comprising . . . ppm of active ingredient ([1]; 63 ppm): 15% | % infection of the leaves after application of an aqueous preparation comprising 250 ppm of active ingredient [2]: 5%

CCCN(C(=O)CC)c1ccc(C(=NOC)C(C)=NOCc2ccccc2C(=NOC)C(=O)NC)cc1 [I.15]
% infection of the leaves after application of an aqueous preparation comprising 250 ppm of active ingredient [2]: 5%

CCON=C(C)c1ccc(C(=NOC)C(C)=NOCc2ccccc2C(=NOC)C(=O)NC)cc1 [I.55]
% infection of the leaves after application of an aqueous preparation comprising . . . ppm of active ingredient ([1]; 16 ppm): 0% | % infection of the leaves after application of an aqueous preparation comprising 250 ppm of active ingredient [2]: 15%

CCC(=O)Nc1ccc(C(=NOC)C(C)=NOCc2ccccc2C(=COC)C(=O)OC)cc1 [I.16]
% infection of the leaves after application of an aqueous preparation comprising 250 ppm of active ingredient [2]: 5%

C#CCON=C(C(C)=NOCc1ccccc1C(=COC)C(=O)OC)c1ccc(C(C)=NOC)cc1 [I.57]
% infection of the leaves after application of an aqueous preparation comprising . . . ppm of active ingredient ([1]; 63 ppm): 15% | % infection of the leaves after application of an aqueous preparation comprising 250 ppm of active ingredient [2]: 0%

CC=C(C(=O)OC)c1ccccc1CON=C(C)C(=NOC)c1ccc(N(C)C(C)=O)cc1 [I.40]
% infection of the leaves after application of an aqueous preparation comprising . . . ppm of active ingredient ([1]; 63 ppm): 0% | % infection of the leaves after application of an aqueous preparation comprising 250 ppm of active ingredient [2]: 15%

CO/N=C(/C(C)=N/OCc1ccccc1/C(=N\OC)C(=O)OC)c1ccc(NC(=O)C(C)(C)C)cc1 [I.11]
melting point: 114 to 116 °C

CO/N=C(\C)c1ccc(C(=N\OC)/C(C)=N/OCc2ccccc2/C(=N\OC)C(=O)OC)cc1 [I.51]
melting point: 112 to 114 °C

CNC(=O)C(=NOC)c1ccccc1CON=C(C)C(=NOC)c1ccc(N(C)C(C)=O)cc1 [I.29]
% infection of the leaves after application of an aqueous preparation comprising . . . ppm of active ingredient ([1]; 16 ppm): 5%

C#CCON=C(C(C)=NOCc1ccccc1C(=COC)C(=O)OC)c1ccc(C(C)=NOCC)cc1 [I.56]
% infection of the leaves after application of an aqueous preparation comprising . . . ppm of active ingredient ([1]; 63 ppm): 15%

CCCN(C(=O)C(C)(C)C)c1ccc(C(=NOC)C(C)=NOCc2ccccc2C(=NOC)C(=O)NC)cc1 [I.32]
% infection of the leaves after application of an aqueous preparation comprising . . . ppm of active ingredient ([1]; 16 ppm): 0% | % infection of the leaves after application of an aqueous preparation comprising 250 ppm of active ingredient [2]: 15%
